How the values were obtained:
human FLAP = human FLAP (Homo sapiens (Human), UniProt P20292); experiment: FLAP binding assay (HTRF); settings: human FLAP-containing membranes, HTRF format; average of two assay plates, duplicates; read-out: FLAP Binding wild type HTRF Ki
Procedure, shortened: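 Read-out is the HTRF ratio. Each reported figure averages two assay plates on which samples were tested in duplicate.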

[1] = system: leukotriene pathway in human whole blood (LTB4 levels); experiment: Human whole blood assay (LTB4); assay type: cell-based; settings: human whole blood diluted 1:1 in RPMI, stimulated with calcium ionophore A23187; single replicate
Experimental: The ability of the compounds of the present invention to treat a FLAP-mediated disease and/or disorder, or associated symptoms or complications thereof, was determined using the following procedures. Binding assay data represent the average value obtained from two different assay plates, with samples run in duplicate on each plate. Human whole blood assay data represent a single replicate on an assay plate using whole blood from at least one healthy donor.
An in vitro cellular assay was performed using human whole blood collected in heparin-containing tubes, which was used to test the ability of compounds to modulate the leukotriene pathway in human whole blood. The blood was diluted 1:1 in RPMI medium, pre-incubated for 15 min at 37° Celsius with test compounds at various concentrations, and then stimulated with calcium ionophore, A23187 (7 μg/mL), for 30 min at 37° Celsius. The samples were then centrifuged and plasma was removed. The plasma was diluted in assay buffer and LTB4 levels were measured using a commercial kit (Enzo Life Sciences). The concentration of each compound that was required for half-maximal inhibition (modulation) of recombinant enzyme activity (IC50) was calculated by a 4-parameter equation using the program GraphPad Prism (GraphPad software).

human FLAP, sequence (P20292 whole entry): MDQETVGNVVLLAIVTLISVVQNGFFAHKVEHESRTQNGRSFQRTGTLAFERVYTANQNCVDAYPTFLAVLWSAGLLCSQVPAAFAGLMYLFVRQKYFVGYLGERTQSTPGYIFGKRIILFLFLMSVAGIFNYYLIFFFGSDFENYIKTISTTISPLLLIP

Ki (human FLAP)	IC50 [1]	SMILES
47.2 nM	1060 nM	N#Cc1ccc(COc2c(C3CCC3)ccc(-c3cnc4c(c3)OCCN4)c2F)cc1 [Example 190, 4-{[6-Cyclobutyl-3-(3,4-dihydro-2H-pyrido[3,2-b][1,4]oxazin-7-yl)-2-fluorophenoxy]-methyl}-benzonitrile]
20 nM	> 10000 nM	Nc1cnc(-c2ccc(C3CCC3)c(OCc3ccc(S(N)(=O)=O)cc3)c2F)cn1 [Example 26, 4-{[3-(5-Aminopyrazin-2-yl)-6-cyclobutyl-2-fluoro-phenoxy]methyl}benzenesulfonamide]
99.2 nM	357 nM	Nc1cnc(-c2ccc(C3CCC3)c(OCCO)c2F)cn1 [Example 250, 2-(3-(5-Aminopyrazin-2-yl)-6-cyclobutyl-2-fluorophenoxy)ethanol]
35 nM	675 nM	COC(=O)c1ccc(Oc2c(C3CCC3)ccc(-c3cnc(N)cn3)c2F)cc1 [Example 103, Methyl 4-[3-(5-aminopyrazin-2-yl)-6-cyclobutyl-2-fluorophenoxy]benzoate]
2.5 nM	238 nM	Fc1c(-c2cnc3[nH]ccc3n2)ccc(C2CCC2)c1Oc1ncccn1 [Example 230, 2-(4-cyclobutyl-2-fluoro-3-(pyrimidin-2-yloxy)phenyl)-5H-pyrrolo[2,3-b]pyrazine]
30 nM	374 nM	Nc1cnc(NCC(O)COc2c(C3CCC3)ccc(-c3cnc(N)cn3)c2F)nc1 (racemic) [Example 58, racemic 1-(3-(5-Aminopyrazin-2-yl)-6-cyclobutyl-2-fluorophenoxy)-3-((5-aminopyrimidin-2-yl)amino)propan-2-ol]
24.2 nM	1060 nM	Oc1c(C2CCC2)ccc(-c2cnc3c(c2)CCN3)c1F [Example 199, 6-Cyclobutyl-3-(2,3-dihydro-1H-pyrrolo[2,3-b]pyridin-5-yl)-2-fluorophenol]
62.2 nM	2800 nM	CCOC(=O)CCCOc1c(C2CCC2)ccc(-c2cnc(N)cn2)c1F [Example 245, Ethyl 4-(3-(5-aminopyrazin-2-yl)-6-cyclobutyl-2-fluorophenoxy)butanoate]
6.4 nM	185 nM	CC(C)c1cc(Oc2c(C3CCC3)ccc(-c3cnc(N)cn3)c2F)ncn1 [Example 147, 5-(4-Cyclobutyl-2-fluoro-3-{[6-(1-methylethyl)pyrimidin-4-yl]oxy}phenyl)pyrazin-2-amine]
100 nM	812 nM	NC(=O)c1ccccc1COc1c(C2CCC2)ccc(-c2cnc(N)cn2)c1F [Example 19, 2-{[3-(5-Aminopyrazin-2-yl)-6-cyclobutyl-2-fluorophenoxy]methyl}benzamide]
23.2 nM	287 nM	Nc1cnc(-c2ccc(C3CCC3)c(Oc3ccnc(Oc4c(C5CCC5)ccc(-c5cnc(N)cn5)c4F)n3)c2F)cn1 [Example 224, 5,5′-((pyrimidine-2,4-diylbis(oxy))bis(4-cyclobutyl-2-fluoro-3,1-phenylene))bis(pyrazin-2-amine)]
24.6 nM	1310 nM	N#Cc1ccc(Oc2c(C3CCC3)ccc(-c3cnc(N)cn3)c2F)cn1 [Example 108, 5-[3-(5-Aminopyrazin-2-yl)-6-cyclobutyl-2-fluorophenoxy]pyridine-2-carbonitrile]
23.3 nM	51.1 nM	CC(C)(C)c1ccc(-c2cnc(N)nc2)c(F)c1Oc1nccc(N)n1 [Example 209, 5-{3-[(4-Aminopyrimidin-2-yl)oxy]-4-tert-butyl-2-fluorophenyl}pyrimidin-2-amine]
7.7 nM	408 nM	COc1cc(Oc2c(C3CCC3)ccc(-c3cnc4[nH]ccc4n3)c2F)ncn1 [Example 229, 2-(4-cyclobutyl-2-fluoro-3-((6-methoxypyrimidin-4-yl)oxy)phenyl)-5H-pyrrolo[2,3-b]pyrazine]
92.1 nM	1010 nM	CC(C)Oc1c(C2CCCC2)ccc(-c2cnc(N)cn2)c1F [Example 213, 5-[4-Cyclopentyl-2-fluoro-3-(1-methylethoxy)phenyl]pyrazin-2-amine]
29.6 nM	> 1000 nM	Nc1cnc(-c2ccc(C3CCC3)c(OCC3CCCO3)c2F)cn1 (stereo not drawn) [Example 252, 5-(4-Cyclobutyl-2-fluoro-3-((tetrahydrofuran-2-yl)methoxy)phenyl)pyrazin-2-amine]
250 nM	2500 nM	Nc1cnc(-c2ccc(C3CCC3)c(OCc3c(Cl)cccc3Cl)c2F)cn1 [Example 37, 5-{4-Cyclobutyl-3-[(2,6-dichlorobenzyl)oxy]-2-fluorophenyl}pyrazin-2-amine]
173 nM	1290 nM	Nc1cnc(-c2ccc(C3CCC3)c(OCc3ccc(S(F)(F)(F)(F)F)cc3F)c2F)cn1 [Example 78, 5-(4-Cyclobutyl-2-fluoro-3-{[2-fluoro-4-(pentafluoro-lambda~6~- sulfanyl)benzyl]oxy}phenyl)pyrazin-2-amine]
328 nM	> 10000 nM	COc1c(C2CCC2)ccc(-c2cnc3[nH]cnc3c2)c1F [Example 183, 6-(4-Cyclobutyl-2-fluoro-3-methoxyphenyl)-3H-imidazo[4,5-b]pyridine]
250 nM	1290 nM	Nc1cnc(-c2ccc(C3CCC3)c(OCc3cccnc3)c2F)cn1 [Example 13, 5-[4-Cyclobutyl-2-fluoro-3-(pyridin-3-ylmethoxy)phenyl]pyrazin-2-amine]
220 nM	2540 nM	Nc1cnc(-c2ccc(C3CCC3)c(OCc3ccc(Cl)cc3)c2F)cn1 [Example 36, 5-{3-[(4-Chlorobenzyl)oxy]-4-cyclobutyl-2-fluorophenyl}pyrazin-2-amine]
138 nM	1960 nM	COC(=O)c1ccc(O)c(NC(=O)COc2c(C3CCC3)ccc(-c3cnc(N)cn3)c2F)c1 [Example 263, Methyl 3-({[3-(5-aminopyrazin-2-yl)-6-cyclobutyl-2-fluorophenoxy]acetyl}amino)-4-hydroxybenzoate]
462 nM	1820 nM	Nc1cnc(-c2ccc(C3CCC3)c(OCCN3CCOCC3)c2F)cn1 [Example 244, 5-(4-Cyclobutyl-2-fluoro-3-(2-morpholinoethoxy)phenyl)pyrazin-2-amine]
47.4 nM	72.6 nM	CC(C)(C)c1ccc(-c2cnc(N)nc2)c(F)c1Oc1ncccn1 [Example 207, 5-[4-tert-Butyl-2-fluoro-3-(pyrimidin-2-yloxy)phenyl]pyrimidin-2-amine]
27 nM	608 nM	Nc1cnc(-c2ccc(C3CCC3)c(Oc3ccc(C(F)(F)F)cn3)c2F)cn1 [Example 113, 5-(4-Cyclobutyl-2-fluoro-3-{[5-(trifluoromethyl)pyridin-2-yl]oxy}phenyl)pyrazin-2-amine]
8.3 nM	197 nM	CS(=O)(=O)c1ccc(Oc2c(C3CCC3)ccc(-c3cnc(N)cn3)c2F)nc1 [Example 239, 5-(4-cyclobutyl-2-fluoro-3-((5-(methylsulfonyl)pyridin-2-yl)oxy)phenyl)pyrazin-2-amine]
297 nM	1110 nM	Nc1cnc(-c2ccc(C3CCC3)c(Oc3ccc(S(F)(F)(F)(F)F)cc3)c2F)cn1 [Example 115, 5-{4-Cyclobutyl-2-fluoro-3-[4-(pentafluoro-lambda~6~- sulfanyl)phenoxy]phenyl}pyrazin-2-amine]

Source: patent publication US9073876B2, “Flap modulators” (JANSSEN PHARMACEUTICA NV, priority 2013, dated 2015)
